Laboratory results published in US8932597B2 (priority 2008, dated 2015).

How the values were obtained:
[1] = test system: anti-M2 human monoclonal antibody Z3G1; assay type: binding
HuM2e antibody 23K12 = assay type: binding, human

Row | Substance | Signal (peptides that bind to Z3G1) [1] | Signal (peptides that bind to 23K21 and 8I10) (HuM2e antibody 23K12) | Signal (peptides that show specific binding to Z3G1) [1]
1 | 397 (SLLTEVETPIRNEWGCRCNQSSD; epitope peptide) [compound 397] | 2376 | 842 | 
2 | 608 (SLLTEIETPIRNEWGCRCNDSSD; epitope peptide) [compound 608] |  | 816 | 2016
3 | 706 (SLLTEVETPIRNEWGCRCADSSD; epitope peptide) [compound 706] | 2329 | 712 | 
4 | 509 (SLLTEVETPIYNEWGCRCNDSSD; epitope peptide) [compound 509] |  | 1049 | 2296
5 | 512 (SLLTEVETPIRNQWGCRCNDSSD; epitope peptide) [compound 512] |  | 1039 | 2402
6 | 707 (SLLTEVETPIANEWGCRCNDSSD; epitope peptide) [compound 707] |  | 708 | 2302
7 | 667 (SLLTEVETPIRNEWGIRCNDSSD; epitope peptide) [compound 667] |  | 739 | 2211
8 | 720 (SLLTEVETPIINEWGCRCNDSSD; epitope peptide) [compound 720] |  | 699 | 2262
9 | 545 (SLLTEVSTPIRNEWGCRCNDSSD; epitope peptide) [compound 545] |  | 923 | 2288
10 | 426 (SLLTEVETPIRNEWGCRCNDSLD; epitope peptide) [compound 426] | 2400 | 779 | 
11 | 543 (MSLLTCVGMSLLTEV; epitope peptide) [compound 543] | 2627 | 925 | 
12 | 522 (SLLTMVETPIRNEWGCRCNDSSD; epitope peptide) [compound 522] |  | 1011 | 1244
13 | 412 (SLLTEVETPIRNEWGCRCNDNSD; epitope peptide) [compound 412] | 2389 | 708 | 
14 | 488 (SLLTEVETPIHNEWGCRCNDSSD; epitope peptide) [compound 488] |  | 1112 | 2121
15 | 127 (CSLLTEVETCSLLTEVETC; epitope peptide) [compound 127] |  | 1647 | 2555
16 | 617 (SLLTEVETPIRNSWGCRCNDSSD; epitope peptide) [compound 617] |  | 807 | 2300
17 | 570 (MCLLTEVGCSLLTEV; epitope peptide) [compound 570] | 2717 | 875 | 
18 | 674 (SLLTEVETPIRNEWGCRCTDSSD; epitope peptide) [compound 674] | 2253 | 733 | 
19 | 622 (SLLTEVETPIRMEWGCRCNDSSD; epitope peptide) [compound 622] |  | 805 | 2385
20 | 437 (SLLTEVETPIR; epitope peptide) [compound 437] | 2297 | 1012 | 
21 | 287 (MSLLTEVGMSLLTEV; epitope peptide) [compound 287] | 2878 | 2267 | 
22 | 609 (SLLTEVETHIRNEWGCRCNDSSD; epitope peptide) [compound 609] |  | 816 | 2288
23 | 433 (SLLTEVETPIRNEWGCRCNDSWD; epitope peptide) [compound 433] | 2477 | 971 | 
24 | 413 (SLLTEVETPIRNEWGCRCNDPSD; epitope peptide) [compound 413] | 2450 | 797 | 
25 | 291 (MSLLTEVGMCLCTCV; epitope peptide) [compound 291] | 2842 | 2110 | 

Row | Substance | Signal (peptides that bind to Z3G1) [1] | Signal (peptides that bind to 23K21 and 8I10) (HuM2e antibody 23K12) | Signal (peptides that show specific binding to Z3G1) [1]
26 | 664 (SLLTEVETPIRNEWGNRCNDSSD; epitope peptide) [compound 664] |  | 746 | 2328
27 | 327 (SLMTEVETPIRNEWGCRCNDSSD; epitope peptide) [compound 327] |  | 1729 | 2149
28 | 513 (MCLLTEVGMSLLTEV; epitope peptide) [compound 513] | 2697 | 1032 | 
29 | 606 (SLLTEVETQIRNEWGCRCNDSSD; epitope peptide) [compound 606] |  | 819 | 2189
30 | 542 (MSLCTEVGMSLLTCV; epitope peptide) [compound 542] | 2722 | 927 | 
31 | 612 (SLLTEVETPIRNEWGCRCIDSSD; epitope peptide) [compound 612] | 2450 | 812 | 
32 | 493 (SLLTEVETMIRNEWGCRCNDSSD; epitope peptide) [compound 493] |  | 1104 | 2320
33 | 649 (SLLTEVETTIRNEWGCRCNDSSD; epitope peptide) [compound 649] |  | 760 | 2295
34 | 368 (SLLTEVETPIRNEWG; epitope peptide) [compound 368] | 2429 | 1486 | 
35 | 304 (MSLCTEVGMSLLCEV; epitope peptide) [compound 304] | 2616 | 1935 | 
36 | 409 (SLLTEVETPIRNEWGCRCNDKSD; epitope peptide) [compound 409] | 2484 | 898 | 
37 | 401 (SLLTEVETPIRNEWGCRCNWSSD; epitope peptide) [compound 401] | 2556 | 999 | 
38 | 719 (SLLTEVETPIRNEWGCTCNDSSD; epitope peptide) [compound 719] |  | 700 | 2347
39 | 303 (CSLLTEVGMCLLTEV; epitope sequence) [compound 303] | 2618 | 1941 | 
40 | 639 (SLLTEVETPIRNEWGCFCNDSSD; epitope peptide) [compound 639] |  | 767 | 2312
41 | 546 (SLLTEVETPIRNRWGCRCNDSSD; epitope peptide) [compound 546] |  | 921 | 2257
42 | 654 (SLLTEVETPIRYEWGCRCNDSSD; epitope peptide) [compound 654] |  | 755 | 2202
43 | 360 (CSLLTECGCSLLTEV; epitope peptide) [compound 360] | 1427 | 1534 | 
44 | 659 (SLLTEVETPIRNEWGARCNDSSD; epitope peptide) [compound 659] |  | 750 | 2396
45 | 687 (SLLTEVETPCRNEWGCRCNDSSD; epitope peptide) [compound 687] |  | 724 | 2050
46 | 710 (SLLTEVETPIRREWGCRCNDSSD; epitope peptide) [compound 710] |  | 707 | 2278
47 | 366 (SLLTEVETPIRNEWWCRCNDSSD; epitope peptide) [compound 366] |  | 1498 | 2406
48 | 420 (SLLTEVETPIRNEWGCRCNDSCD; epitope peptide) [compound 420] | 2269 | 725 | 
49 | 619 (SLLTEVETPIRNEWGCRCNASSD; epitope peptide) [compound 619] | 2454 | 807 | 
50 | 407 (SLLTEVETPIRNEWGCRCNDHSD; epitope peptide) [compound 407] | 2537 | 1200 | 
